Measured values reported in ChEMBL document CHEMBL6134863, “Novel Mitochondria-Targeted Asymmetric Heptamethine Cyanine Dye for Cancer Targeted NIR Imaging and Potent Necrosis and Senescence Induction with Prolonged Retention” (J Med Chem, 2025).
The source made the active and inactive calls. The rule behind the calls is not given here.

Key:
[1] = Photostability of compound in DMSO-H2O incubated for 1 hr irradiated with deuterium lamp by absorbance based analysis; type: physicochemical; conditions: read-out: Stability
[2] = Stability of compound in DMSO-H2O incubated for 1 hr by absorbance based analysis; type: physicochemical
[3] = Stability of compound at 30 degreeC by thermogravimetric analysis; type: physicochemical
[4] = Antioxidant activity of compound in presence of ROS; type: functional
[5] = Antioxidant activity of compound in presence of RSS; type: functional
[6] = Antioxidant activity of compound in presence of Glutathione; type: functional
[7] = Antioxidant activity of compound in presence of L-Cysteine; type: functional
[8] = Drug accumulation in BALB/c mouse tumor xenografted with human NCI-H520 cells assessed as increase in fluorescence intensity at 0.5 mg/kg, iv measured at 96 hrs by imaging based analysis; type: ADME, organism-based, Neoplasm; conditions: in vivo
[9] = Drug accumulation in BALB/c mouse plasma xenografted with human NCI-H520 cells assessed as increase in fluorescence intensity at 0.5 mg/kg, iv measured at 96 to 120 hrs by imaging based analysis; type: ADME, organism-based; conditions: in vivo, time 96-120 hrs
[10] = test system: 4T1; assay: Antitumor activity against mouse 4T1 cells implanted in BALB/c mouse assessed as tumor growth inhibition 5 mg/kg, iv measured for 11 days; type: functional; conditions: 4T1, 264 h, time 11 day, read-out: TGI
[11] = Toxicity in BALB/c mouse implanted with mouse 4T1 cells assessed as heart damage at 5 mg/kg, iv measured for 11 days by H and E staining based analysis; type: organism-based; conditions: in vivo, 264 h, time 11 day
[12] = test system: NCI-H226; assay: Induction of apoptosis in human NCI-H226 cells assessed as early apoptotic cells at 5 uM incubated for 48 hrs by Annexin V-FITC/PI staining based flow cytometry (reference value: 2.93 %); type: functional
[13] = test system: NCI-H226; assay: Induction of apoptosis in human NCI-H226 cells assessed as necrotic cells at 5 uM incubated for 48 hrs by Annexin V-FITC/PI staining based flow cytometry (reference value: 0.048 %); type: functional
[14] = test system: Squamous carcinoma cell line; assay: Antitumor activity against patient-derived Squamous carcinoma cell line xenografted in BALB/c mouse assessed as tumor growth inhibition at 0.5 mg/kg, iv measured for 5 days; type: functional, organism-based; conditions: Homo sapiens, time 5.0 day

Structure (SMILES): CCCN1/C(=C/C=C2\CCCC(/C=C/C3=[N+](Cc4ccc(C(=O)O)cc4)c4ccccc4C3(C)C)=C2Cl)C(C)(C)c2ccccc21.[Br-]
- remaining at 1 h [1]: 95.8%
- Stability [2]: Stable
- Stability [3]: Stable
- Activity [4]: Active
- Activity [5]: Active
- Activity [6]: Active
- Activity [7]: Active
- Drug uptake [8]: Active
- Drug uptake [9]: Active
- inhibition in vivo at 5 mg/kg [10]: ~60%
- Activity [11]: Non-toxic
- Activity [12]: 0.82%
- Activity [13]: 58.9%
- TGI [14]: Active
